Test results from patent US11096985B2, “Antimicrobial peptides, their variants and uses” (priority 2015, dated 2021).

Legend:
Format in all cases: cell-based
[1] = tested on: clinical strains of Acinetobacter baumannii; test: MIC, clinical strains of Acinetobacter baumannii; conditions: microdilution, Muller Hinton broth-cation adjusted, 0.02% BSA, 0.2% acetic acid
Method: (§1) Minimum inhibition concentrations (MICs) were determined against Escherichia coli (ATCC 25922), Staphylococcus aureus (ATCC 25923), Klebsiella pneumoniae (ATCC 10031) and Pseudomonas aeruginosa (ATCC 27853). Also clinical strains of E. coli, K. pneumoniae, E. cloacae, P. aeruginosa, Serratia marcescens, Proteus mirabilis, S. pneumoniae, Acinetobacter baumannii, A. johnsonii and S. aureus were used for MICs assays. Additionally, clinical strains of yeast including Candida albicans, C. glabrata, C. parapsilosis and C. quillermondiae were used. The susceptibility of these microorganisms to Chain peptides were determined using micro broth dilution assay. Colonies of the respective microorganism from Muller Hinton (MH) agar plates incubated overnight were suspended in MH broth media and final concentration of microorganism was adjusted to 5.0×10^5 cfu/ml. An aliquot of 10 μl of each Chain peptide, or gentamicin, tetracycline as reference antibiotics were added in differing concentrations along with 90 μl of bacterial suspension to 96 well polypropylene plates and incubated at 37° C. for 20 to 24 hours. Concentrations of Chain peptides and reference antibiotics ranged from 0.125 to 128 μg/ml and the MICs were recorded as the lowest concentration with no visual growth of bacteria. Similarly, antifungal MICs were tested in Potato dextrose broth.
(§2) Clinical strains of yeasts including Candida albicans, C. glabrata, C. parapsilosis and C. quillermondiae were also tested with the 12 Chain peptides. The minimum inhibitory concentration (MICs) varied between these peptides and are presented in Tables 4a, 4b, 4c and 5a, 5b, 5c. Peptides Chain 105, 201 and 308 are broad spectrum antimicrobials with MICs between 0.5-32 μg/ml against all the bacteria and yeasts tested, except Serratia marcescens and Proteus mirabilis, against which the MICs were between 64-128 μg/ml. Peptide Chain 306 has narrow spectrum activity against E.coli at 1 μg/ml and for the rest of the bacterial strains at >32 μg/ml (FIG. 10).

[2] = tested on: clinical strains of Serratia marcescens; test: MIC, clinical strains of Serratia marcescens; design: unit: µg/mL; conditions: microdilution, Muller Hinton broth-cation adjusted, 0.02% BSA, 0.2% acetic acid
Summary of the method: (§3)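 MH broth; 5.0×10^5 cfu/ml; peptides 0.125–128 μg/ml; 37° C., 20–24 h; visual no-growth endpoint. Fungal MICs in potato dextrose broth.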

[3] = tested on: clinical strains of Staphylococcus aureus; test: MIC, clinical strains of S. aureus; design: unit: μg/ml; conditions: microdilution, Muller Hinton broth-cation adjusted, 0.02% BSA, 0.2% acetic acid
Summary of the method: as §3

[4] = tested on: clinical strains of Escherichia coli; test: MIC, clinical strains of E. coli; design: unit: μg/ml; conditions: microdilution, Muller Hinton broth-cation adjusted, 0.02% BSA, 0.2% acetic acid
Summary of the method: as §3

[5] = tested on: clinical strains of Enterobacter cloacae; test: MIC, clinical strains of Enterobacter cloacae; design: unit: μg/ml; conditions: microdilution, Muller Hinton broth-cation adjusted, 0.02% BSA, 0.2% acetic acid
Summary of the method: as §3

[6] = tested on: clinical strains of Acinetobacter johnsonii; conditions: Acinetobacter johnsonii clinical strain 1; microdilution, Muller Hinton broth-cation adjusted, 0.02% BSA, 0.2% acetic acid
Method: as §1, §2

[7] = tested on: clinical strains of Pseudomonas aeruginosa; test: MIC, clinical strains of P. aeruginosa; design: unit: μg/ml; conditions: microdilution, Muller Hinton broth-cation adjusted, 0.02% BSA, 0.2% acetic acid
Summary of the method: as §3

[8] = tested on: clinical strains of Streptococcus pneumoniae; test: MIC, clinical strains of Streptococcus pneumoniae; design: unit: µg/mL; conditions: microdilution, Muller Hinton broth-cation adjusted, 0.02% BSA, 0.2% acetic acid
Summary of the method: as §3

[9] = tested on: clinical strains of Proteus mirabilis; test: MIC, clinical strains of Proteus mirabilis; design: unit: µg/mL; conditions: microdilution, Muller Hinton broth-cation adjusted, 0.02% BSA, 0.2% acetic acid
Summary of the method: as §3

[10] = tested on: clinical strains of Klebsiella pneumoniae; test: MIC, clinical strains of K. pneumoniae; design: unit: μg/ml; conditions: microdilution, Muller Hinton broth-cation adjusted, 0.02% BSA, 0.2% acetic acid
Summary of the method: as §3

Substance: Gentamicin [reference compound]
- Minimum inhibitory concentration ([1]; Acinetobacter baumannii clinical strain 1): 0.5
- Minimum inhibitory concentration ([1]; Acinetobacter baumannii clinical strain 2): 0.25
- Minimum inhibitory concentration ([1]; Acinetobacter baumannii clinical strain 3): 0.5
- Minimum inhibitory concentration ([1]; Acinetobacter baumannii clinical strain 4): 0.5
- Minimum inhibitory concentration ([1]; Acinetobacter baumannii clinical strain 5): 0.25
- Minimum inhibitory concentration ([2]; Serratia marcescens clinical strain 1): 1
- Minimum inhibitory concentration ([2]; Serratia marcescens clinical strain 2): 2
- Minimum inhibitory concentration ([2]; Serratia marcescens clinical strain 3): 1
- Minimum inhibitory concentration ([2]; Serratia marcescens clinical strain 4): 1
- Minimum inhibitory concentration ([2]; Serratia marcescens clinical strain 5): 1
- Minimum inhibitory concentration ([3]; Staphylococcus aureus clinical strain 1): 0.5
- Minimum inhibitory concentration ([3]; Staphylococcus aureus clinical strain 2): 0.5
- Minimum inhibitory concentration ([3]; Staphylococcus aureus clinical strain 3): 0.5
- Minimum inhibitory concentration ([3]; Staphylococcus aureus clinical strain 4): 0.5
- Minimum inhibitory concentration ([3]; Staphylococcus aureus clinical strain 5): 0.5
- Minimum inhibitory concentration ([4]; Escherichia coli clinical strain 1): 0.5
- Minimum inhibitory concentration ([4]; Escherichia coli clinical strain 2): 0.5
- Minimum inhibitory concentration ([4]; Escherichia coli clinical strain 3): 1
- Minimum inhibitory concentration ([4]; Escherichia coli clinical strain 4): 1
- Minimum inhibitory concentration ([4]; Escherichia coli clinical strain 5): 1
- Minimum inhibitory concentration ([5]; Enterobacter cloacae clinical strain 1): 0.25
- Minimum inhibitory concentration ([5]; Enterobacter cloacae clinical strain 2): 0.25
- Minimum inhibitory concentration ([5]; Enterobacter cloacae clinical strain 3): 0.25
- Minimum inhibitory concentration ([5]; Enterobacter cloacae clinical strain 4): 0.25
- Minimum inhibitory concentration ([5]; Enterobacter cloacae clinical strain 5): 0.25
- Minimum inhibitory concentration [6]: 0.25
- Minimum inhibitory concentration ([7]; Pseudomonas aeruginosa clinical strain 1): 1
- Minimum inhibitory concentration ([7]; Pseudomonas aeruginosa clinical strain 2): 0.5
- Minimum inhibitory concentration ([7]; Pseudomonas aeruginosa clinical strain 3): 0.5
- Minimum inhibitory concentration ([7]; Pseudomonas aeruginosa clinical strain 4): 0.5
- Minimum inhibitory concentration ([7]; Pseudomonas aeruginosa clinical strain 5): 0.25
- Minimum inhibitory concentration ([8]; Streptococcus pneumoniae clinical strain 1): 2
- Minimum inhibitory concentration ([8]; Streptococcus pneumoniae clinical strain 2): 2
- Minimum inhibitory concentration ([8]; Streptococcus pneumoniae clinical strain 3): 2
- Minimum inhibitory concentration ([8]; Streptococcus pneumoniae clinical strain 4): 2
- Minimum inhibitory concentration ([8]; Streptococcus pneumoniae clinical strain 5): 1
- Minimum inhibitory concentration ([9]; Proteus mirabilis clinical strain 1): 2
- Minimum inhibitory concentration ([9]; Proteus mirabilis clinical strain 2): 2
- Minimum inhibitory concentration ([9]; Proteus mirabilis clinical strain 3): >128
- Minimum inhibitory concentration ([9]; Proteus mirabilis clinical strain 4): 8
- Minimum inhibitory concentration ([9]; Proteus mirabilis clinical strain 5): >128
- Minimum inhibitory concentration ([10]; Klebsiella pneumoniae clinical strain 1): 2
- Minimum inhibitory concentration ([10]; Klebsiella pneumoniae clinical strain 2): 0.25
- Minimum inhibitory concentration ([10]; Klebsiella pneumoniae clinical strain 3): 2
- Minimum inhibitory concentration ([10]; Klebsiella pneumoniae clinical strain 4): 2
- Minimum inhibitory concentration ([10]; Klebsiella pneumoniae clinical strain 5): 4
